Experiments:
human EP4 receptor = molecular target: T1, human EP4 receptor (Homo sapiens, UniProt P35408); test: Binding ability to human EP receptors ([3H]PGE2 displacement), EP4; settings: membranes from cells stably transfected with human EP4 receptor; 1 nM [3H]PGE2; Cheng-Prusoff from IC50; read-out: pKi EP4 (converted)
T1 construct: expressed in transfected cells
Method: (§1) Membranes were prepared from cells stably transfected with human EP receptor cDNA. In brief, cells were cultured to confluency, scraped from culture flasks, and centrifuged (800 g, 8 minutes, 4° C.). Cells were twice washed in ice cold homogenisation buffer containing 10 mMTris-HCl, 1 mM EDTA.2Na, 250 mM sucrose, 1 mM PMSF, 0.3 mM indomethacin, pH 7.4, homogenised and re-centrifuged as before. The supernatant was stored on ice and pellets re-homogenised and re-spun. Supernatants were pooled and centrifuged at 40000 g, 10 minutes, 4° C. Resultant membrane pellets were stored at −80° C. until use.
(§2) For assay, membranes expressing human EP4, EP3, EP2 or EP1 receptors were incubated in Millipore (MHVBN45) plates containing assay buffer, radiolabelled [^3H]PGE2 and 0.1 to 10 000 nM concentrations of compounds. Incubations were performed at suitable temperatures and for suitable times to allow equilibrium to be reached. Non-specific binding was determined in the presence of 10 uM PGE2. Bound and free radiolabel was separated by vacuum manifold filtration using appropriate wash buffers, and bound radiolabel was determined by scintillation counting. Constituents of each of the buffers are included in table 1 below.
(§3) The affinity or pKi of each compound for each receptor was calculated from the concentration causing 50% radioligand displacement (IC50) using the Cheng-Prusoff equation: […]

human EP2 receptor = molecular target: T2, human EP2 receptor (Homo sapiens, UniProt P43116); test: Binding ability to human EP receptors ([3H]PGE2 displacement), EP2; settings: membranes from cells stably transfected with human EP2 receptor; 3 nM [3H]PGE2; Cheng-Prusoff from IC50; read-out: pKi EP2 (converted)
T2 construct: expressed in transfected cells
Method: as §1, §2, §3

human EP3 receptor = molecular target: T3, human EP3 receptor (Homo sapiens, UniProt P43115); test: Binding ability to human EP receptors ([3H]PGE2 displacement), EP3; settings: membranes from cells stably transfected with human EP3 receptor; 2.5 nM [3H]PGE2; Cheng-Prusoff from IC50; read-out: pKi EP3 (converted)
T3 construct: expressed in transfected cells
T3 sequence (P43115 1-390): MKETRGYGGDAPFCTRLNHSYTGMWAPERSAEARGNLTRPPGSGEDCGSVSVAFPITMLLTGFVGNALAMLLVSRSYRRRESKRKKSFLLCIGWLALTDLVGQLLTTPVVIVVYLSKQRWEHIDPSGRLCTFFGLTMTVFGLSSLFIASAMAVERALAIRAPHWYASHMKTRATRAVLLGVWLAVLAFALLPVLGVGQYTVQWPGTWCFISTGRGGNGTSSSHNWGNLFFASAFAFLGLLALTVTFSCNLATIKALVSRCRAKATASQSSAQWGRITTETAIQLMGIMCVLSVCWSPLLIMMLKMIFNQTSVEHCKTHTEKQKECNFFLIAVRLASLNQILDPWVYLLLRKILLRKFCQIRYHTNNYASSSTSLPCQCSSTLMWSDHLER
Method: as §1, §2, §3

T1 sequence (P35408 whole entry): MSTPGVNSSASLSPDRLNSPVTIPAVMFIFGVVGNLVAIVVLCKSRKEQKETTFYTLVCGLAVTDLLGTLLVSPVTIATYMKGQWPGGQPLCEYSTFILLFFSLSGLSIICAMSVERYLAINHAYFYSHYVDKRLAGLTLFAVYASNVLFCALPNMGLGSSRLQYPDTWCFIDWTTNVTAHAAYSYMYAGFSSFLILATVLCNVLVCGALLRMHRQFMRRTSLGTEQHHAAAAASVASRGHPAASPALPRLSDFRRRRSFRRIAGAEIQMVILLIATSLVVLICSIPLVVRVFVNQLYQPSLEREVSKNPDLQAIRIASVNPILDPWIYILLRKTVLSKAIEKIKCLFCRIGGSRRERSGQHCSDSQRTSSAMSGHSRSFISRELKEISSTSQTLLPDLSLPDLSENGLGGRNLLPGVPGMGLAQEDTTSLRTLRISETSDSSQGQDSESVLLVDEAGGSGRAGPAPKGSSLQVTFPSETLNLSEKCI
T2 sequence (P43116 whole entry): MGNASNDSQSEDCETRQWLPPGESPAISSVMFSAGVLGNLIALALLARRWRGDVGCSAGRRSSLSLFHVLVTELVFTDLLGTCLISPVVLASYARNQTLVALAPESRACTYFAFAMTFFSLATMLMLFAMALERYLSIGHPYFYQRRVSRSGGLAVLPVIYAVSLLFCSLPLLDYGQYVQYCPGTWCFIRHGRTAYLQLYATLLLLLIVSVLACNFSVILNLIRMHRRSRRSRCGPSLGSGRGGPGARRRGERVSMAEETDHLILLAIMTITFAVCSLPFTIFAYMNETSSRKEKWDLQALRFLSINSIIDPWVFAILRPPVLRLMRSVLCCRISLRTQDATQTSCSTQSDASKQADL

| Ki (human EP4 receptor) [µM] | Ki (human EP2 receptor) [µM] | Ki (human EP3 receptor) [µM] | SMILES |
| --- | --- | --- | --- |
| < 1 | > 10 | > 10 | CCCS(=O)(=O)NC(=O)Cc1ccc(NC(=O)c2cc(-c3ccc(OC(F)F)cc3)oc2C)cc1 [Compound 27, 5-(4-Difluoromethoxy-phenyl)-2-methyl-furan-3-carboxylic acid {4-[2-oxo-2-(propane-1-sulfonylamino)-ethyl]-phenyl}-amide] |
| < 1 | > 10 | > 10 | Cc1noc(C)c1S(=O)(=O)NC(=O)Cc1ccc(NC(=O)c2cc(-c3ccc(OC(F)F)cc3)oc2C)cc1 [Compound 28, 5-(4-Difluoromethoxy-phenyl)-2-methyl-furan-3-carboxylic acid {4-[2-(3,5-dimethyl-isoxazole-4-sulfonylamino)-2-oxo-ethyl]-phenyl}-amide] |
| < 0.1 | > 3.16 | > 10 | Cc1oc(-c2ccc(OC(F)F)cc2)cc1C(=O)Nc1ccc(CC(=O)NS(=O)(=O)c2cccs2)cc1 [Compound 29, 5-(4-Difluoromethoxy-phenyl)-2-methyl-furan-3-carboxylic acid {4-[2-oxo-2-(thiophene-2-sulfonylamino)-ethyl]-phenyl}-amide] |
| < 0.1 | > 1 | > 10 | Cc1ccc(S(=O)(=O)NC(=O)Cc2ccc(NC(=O)c3cc(-c4ccc(OC(F)F)cc4)oc3C)cc2)nc1 [Compound 30, 5-(4-Difluoromethoxy-phenyl)-2-methyl-furan-3-carboxylic acid {4-[2-(5-methyl-pyridine-2-sulfonylamino)-2-oxo-ethyl]-phenyl}-amide] |
| < 0.1 | > 1 | > 10 | Cc1oc(-c2ccc(OC(F)F)cc2)cc1C(=O)Nc1ccc(CC(=O)NS(=O)(=O)Cc2ccccc2)cc1 [Compound 31, 5-(4-Difluoromethoxy-phenyl)-2-methyl-furan-3-carboxylic acid [4-(2-oxo-2-phenylmethanesulfonylamino-ethyl)-phenyl]-amide] |
| < 0.1 | > 3.16 | > 3.16 | Cc1oc(-c2ccc(OC(F)F)cc2)cc1C(=O)Nc1ccc(CC(=O)NS(=O)(=O)c2ccccc2C(F)(F)F)cc1 [Compound 32, 5-(4-Difluoromethoxy-phenyl)-2-methyl-furan-3-carboxylic acid {4-[2-oxo-2-(2-trifluoromethyl-benzenesulfonylamino)-ethyl]-phenyl}-amide] |
| < 0.1 | > 3.16 | > 10 | Cc1oc(-c2ccc(OC(F)F)cc2)cc1C(=O)Nc1ccc(CC(=O)NS(=O)(=O)c2ccc(O)cc2)cc1 [Compound 35, 5-(4-Difluoromethoxy-phenyl)-2-methyl-furan-3-carboxylic acid {4-[2-(4-hydroxy-benzenesulfonylamino)-2-oxo-ethyl]-phenyl}-amide] |
| < 0.1 | > 1 | > 10 | Cc1oc(-c2ccc(OC(F)F)cc2)cc1C(=O)Nc1ccc(CC(=O)NS(=O)(=O)c2ccccc2F)cc1 [Compound 36, 5-(4-Difluoromethoxy-phenyl)-2-methyl-furan-3-carboxylic acid {4-[2-(2-fluoro-benzenesulfonylamino)-2-oxo-ethyl]-phenyl}-amide] |

Further lines, the compound ahead of its results:

| SMILES | Ki (human EP4 receptor) [µM] | Ki (human EP2 receptor) [µM] | Ki (human EP3 receptor) [µM] |
| --- | --- | --- | --- |
| COc1ccc(-c2cc(C(=O)Nc3ccc(CC(=O)O)cc3)c(C(F)(F)F)o2)cc1 [Compound 4, (4-{[5-(4-Methoxy-phenyl)-2-trifluoromethyl-furan-3-carbonyl]-amino}-phenyl)-acetic acid] | < 10 | > 10 | > 10 |
| COc1ccc(-c2cc(C(=O)Nc3ccc(CC(=O)O)cc3)c(C)o2)cc1 [Compound 6, (4-{[5-(4-Methoxy-phenyl)-2-methyl-furan-3-carbonyl]-amino}-phenyl)-acetic acid] | < 1 | > 10 | > 10 |
| O=C(O)Cc1ccc(NC(=O)c2coc(-c3ccccc3)c2)cc1 [Compound 10, {4-[(5-Phenyl-furan-3-carbonyl)-amino]-phenyl}-acetic acid] | < 1 | > 3.16 | > 10 |
| O=C(O)Cc1ccc(NC(=O)c2coc(-c3ccc(OC(F)F)cc3)c2)cc1 [Compound 13, (4-{[5-(4-Difluoromethoxy-phenyl)-furan-3-carbonyl]-amino}-phenyl)-acetic acid] | < 1 | > 10 | > 10 |
| Cc1oc(-c2ccc(OC(F)F)cc2)cc1C(=O)Nc1ccc(CC(=O)O)cc1 [Compound 18, (4-{[5-(4-Difluoromethoxy-phenyl)-2-methyl-furan-3-carbonyl]-amino}-phenyl)-acetic acid] | < 1 | > 3.16 | > 10 |
| Cc1cc(C(=O)NCc2ccc(C(=O)O)cc2)c(-c2ccccc2)o1 [Compound 20, 4-{[(5-Methyl-2-phenyl-furan-3-carbonyl)-amino]-methyl}-benzoic acid] | < 10 | > 10 | > 10 |
| Cc1oc(-c2ccccc2)cc1C(=O)Nc1ccc(CC(=O)NS(=O)(=O)c2ccccc2)cc1 [Compound 21, 2-Methyl-5-phenyl-furan-3-carboxylic acid [4-(2-benzenesulfonylamino-2-oxo-ethyl)-phenyl]-amide] | < 0.1 | > 1 | > 10 |
| COc1ccc(-c2cc(C(=O)Nc3ccc(CC(=O)NS(=O)(=O)c4ccccc4)cc3)c(C(F)(F)F)o2)cc1 [Compound 22, 5-(4-Methoxy-phenyl)-2-trifluoromethyl-furan-3-carboxylic acid [4-(2-benzenesulfonylamino-2-oxo-ethyl)-phenyl]-amide] | < 1 | > 1 | > 10 |
| COc1ccc(-c2cc(C(=O)Nc3ccc(CC(=O)NS(=O)(=O)c4ccccc4)cc3)c(C)o2)cc1 [Compound 23, 5-(4-Methoxy-phenyl)-2-methyl-furan-3-carboxylic acid [4-(2-benzenesulfonylamino-2-oxo-ethyl)-phenyl]-amide] | < 0.1 | > 1 | > 10 |
| Cc1ccccc1S(=O)(=O)NC(=O)Cc1ccc(NC(=O)c2coc(-c3ccccc3)c2)cc1 [Compound 24, 5-Phenyl-furan-3-carboxylic acid {4-[2-oxo-2-(toluene-2-sulfonylamino)-ethyl]-phenyl}-amide] | < 1 | > 0.1 | > 10 |
| Cc1oc(-c2ccc(OC(F)F)cc2)cc1C(=O)Nc1ccc(CC(=O)NS(=O)(=O)c2ccccc2)cc1 [Compound 25, 5-(4-Difluoromethoxy-phenyl)-2-methyl-furan-3-carboxylic acid [4-(2-benzenesulfonylamino-2-oxo-ethyl)-phenyl]-amide] | < 0.1 | > 1 | > 10 |
| Cc1ccccc1S(=O)(=O)NC(=O)Cc1ccc(NC(=O)c2cc(-c3ccc(OC(F)F)cc3)oc2C)cc1 [Compound 26, 5-(4-Difluoromethoxy-phenyl)-2-methyl-furan-3-carboxylic acid {4-[2-oxo-2-(toluene-2-sulfonylamino)-ethyl]-phenyl}-amide] | < 0.1 | > 0.316 | > 10 |

— US7417068B2, “EP4 receptor antagonists” (Asterand UK Limited, priority 2003, dated 2008)
